According to ChEMBL document CHEMBL1127089, “Non-nucleoside inhibitors of HIV-1 reverse transcriptase: molecular modeling and X-ray structure investigations” (J Med Chem, 1993):

Target: Human immunodeficiency virus type 1 reverse transcriptase (Human immunodeficiency virus 1, UniProt Q72547)
Experiment: In vitro for inhibitory activity against HIV-1 Reverse Transcriptase

SMILES	IC50
O=C1c2ccccc2C2(c3cccc4ccccc34)SCCN12 (stereo unspecified)	150 nM
O=C1c2ccccc2[C@@]23CC=CCC12c1ccccc1C3=O (stereo partly specified)	8700 nM
Cc1cccc(C23SCCN2C(=O)c2ccccc23)c1 (stereo unspecified)	30 nM
CC(C)=CCN1Cc2cccc3[nH]c(=S)n(c23)C[C@@H]1C	160 nM
O=C1c2ccccc2C2(c3ccccc3)SCCN12 (stereo unspecified)	280 nM
O=C1c2ccccc2[C@H]2SCCN1c1ccccc12	830 nM
